ChEMBL document CHEMBL5625168, “Purine containing carbonucleoside phosphonate analogues as novel chemotype for Plasmodium falciparum Inhibition” (Eur J Med Chem, 2023)
pIC50, pKd: −log10 of the molar value.

Tests used:
[1] = tested on: Plasmodium falciparum; test: Antimalarial activity against Plasmodium falciparum 3D7 infected in RBC cells assessed as inhibition of parasite growth incubated for 48 hrs by [3H]hypoxanthine incorporation assay; format: functional, organism-based
[2] = target: T1, IMP-specific 5'-nucleotidase 1 (Plasmodium falciparum (isolate 3D7)) (UniProt A0A144A134); test: Binding affinity to recombinant Plasmodium falciparum 3D7 ISN1 assessed as change in melting temperature at 100 uM by differential scanning fluorimetry method
T1 sequence (whole entry): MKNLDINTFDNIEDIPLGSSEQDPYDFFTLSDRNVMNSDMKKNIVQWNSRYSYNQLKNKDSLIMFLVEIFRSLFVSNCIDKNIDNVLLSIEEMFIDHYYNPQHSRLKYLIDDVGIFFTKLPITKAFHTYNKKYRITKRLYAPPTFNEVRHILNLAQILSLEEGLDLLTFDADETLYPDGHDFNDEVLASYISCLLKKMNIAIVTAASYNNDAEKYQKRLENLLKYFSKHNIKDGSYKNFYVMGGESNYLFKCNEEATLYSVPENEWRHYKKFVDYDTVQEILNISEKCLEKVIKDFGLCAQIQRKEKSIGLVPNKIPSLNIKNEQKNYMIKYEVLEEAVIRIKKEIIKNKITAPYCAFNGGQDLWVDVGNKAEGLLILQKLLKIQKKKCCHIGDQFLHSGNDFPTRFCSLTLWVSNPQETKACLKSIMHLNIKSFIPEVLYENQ

[3] = target: T1, IMP-specific 5'-nucleotidase 1 (Plasmodium falciparum (isolate 3D7)); test: Binding affinity to recombinant Plasmodium falciparum 3D7 ISN1 assessed as change in melting temperature at 10 uM by differential scanning fluorimetry method
[4] = target: T2, IMP-specific 5'-nucleotidase 1 (Plasmodium falciparum (isolate 3D7), UniProt A0A144A134); test: Binding affinity to recombinant Plasmodium falciparum 3D7 ISN1 assessed as dissociation constant by thermophoresis analysis
T2 sequence (A0A144A134 whole entry): T1 sequence (whole entry)

[5] = target: T1, IMP-specific 5'-nucleotidase 1 (Plasmodium falciparum (isolate 3D7)); test: Binding affinity to recombinant Plasmodium falciparum 3D7 ISN1 assessed as change in melting temperature at 1 uM by differential scanning fluorimetry method
[6] = Plasmodium falciparum, 3D7, Erythrocyte

| SMILES | pIC50 [1, 6] | also measured |
| --- | --- | --- |
| Nc1nc2c(ncn2[C@H]2CC[C@](O)(CP(=O)(O)O)C2)c(=O)[nH]1 | 4.38 |  |
| Nc1nc2c(ncn2[C@@H]2CC[C@](O)(CP(=O)(O)O)C2)c(=O)[nH]1 | 5.89 |  |
| Nc1nc2c(ncn2[C@@H]2CC[C@@](O)(CP(=O)(O)O)C2)c(=O)[nH]1 | < 4.00 |  |
| Nc1nc2c(ncn2[C@H]2CC[C@@](O)(CP(=O)(O)O)C2)c(=O)[nH]1 |  | pIC50 ([1]; rbc): 4.36 |
| Nc1ncnc2c1ncn2[C@H]1CC[C@@](O)(CP(=O)(O)O)C1 | 4.83 |  |
| COC1NC(N)=Nc2c1ncn2[C@H]1CC[C@@](O)(CCP(=O)(O)O)C1 (mixture of isomers) | 4.99 |  |
| Nc1nc2c(ncn2[C@H]2C=C[C@@](O)(CP(=O)(O)O)C2)c(=O)[nH]1 (racemic) | 6.00 | ΔTm [2]: 4.1 °C; ΔTm [3]: 1.1 °C; pKd [4]: 4.71; ΔTm [5]: -0.9 °C |
| Nc1nc2c(ncn2[C@@H]2CC(CP(=O)(O)O)=C[C@H]2O)c(=O)[nH]1 (racemic) | < 4.00 |  |
| O=P(O)(O)C[C@]1(O)CC[C@H](n2cnc3c(NCc4ccccc4)nc(Cl)nc32)C1 (racemic) | 4.17 |  |
| Nc1nc2c(ncn2[C@H]2CC[C@@](O)(/C=C/P(=O)(O)O)C2)c(=O)[nH]1 (racemic) | 4.30 |  |
| Nc1nc2c(ncn2[C@H]2CC[C@@](O)(CCP(=O)(O)O)C2)c(=O)[nH]1 (racemic) | 5.15 |  |
| O=P(O)(O)C[C@]1(O)CC[C@H](n2cnc3c(NCc4ccccc4)nc(NCc4ccccc4)nc32)C1 (racemic) | 4.39 |  |
| Nc1ncnc2c1ncn2[C@@H]1CC(CP(=O)(O)O)=C[C@H]1O (racemic) | < 4.00 |  |
| Nc1nc2c(ncn2[C@H]2CC[C@@](O)(CP(=O)(O)O)C2)c(=O)[nH]1 (racemic) [listing 1 of 2 here] |  | pKd [4]: 4.62; pIC50 ([1]; rbc): 5.36 |
| Nc1nc(N)c2ncn([C@H]3CC[C@@](O)(CP(=O)(O)O)C3)c2n1 (racemic) | 5.06 |  |
| COc1nc(N)c2ncn([C@H]3CC[C@@](O)(CP(=O)(O)O)C3)c2n1 (racemic) | 5.66 |  |
| COc1nc(Cl)nc2c1ncn2[C@H]1CC[C@@](O)(CP(=O)(O)O)C1 (racemic) | < 4.00 |  |
| Nc1ncnc2c1ncn2[C@H]1CC[C@@](O)(/C=C/P(=O)(O)O)C1 (racemic) | < 4.00 |  |
| Nc1nc(NCc2ccccc2)c2ncn([C@H]3CC[C@@](O)(CP(=O)(O)O)C3)c2n1 (racemic) | 4.10 |  |
| Nc1nc2c(ncn2[C@H]2CC[C@@](O)(CP(=O)(O)O)C2)c(=O)[nH]1 (racemic) [listing 2 of 2 here] |  | ΔTm [2]: -5.2 °C; ΔTm [3]: -4.5 °C; ΔTm [5]: -2 °C |
